“And” between values parts separate entries of the source, which are not always exact repeats. Identical values can stand only once. Numbers after ± are expanded uncertainties.
Legend:
[1] = Molar enthalpy of transition or fusion; details: Crystal; DSC
[2] = for Normal melting temperature: Crystal, DTA; for vapor or sublimation pressure: Liquid, Transpiration method

Cc1cc(C)c(C#N)c(C)c1 [2,4,6-trimethylbenzonitrile]
Details	Molar enthalpy of transition or fusion [kcal/mol]	Normal melting temperature [°C]
[1]	3.7 ± 0.12	–
[2]	–	52.4 ± 1.1

Cc1cccc(C#N)c1 [3-cyanotoluene]
[2]
Details	vapor or sublimation pressure [kPa]
279.8 K	0.0072 ± 0.0005
281.3 K	0.00829 ± 0.00057
283.7 K	0.01033 ± 0.00069
285.7 K	0.01206 ± 0.00081
288.3 K	0.01513 ± 0.001
290.3 K	0.01801 ± 0.0012
292.4 K	0.02154 ± 0.0014
294.3 K	0.02516 ± 0.0016
297.2 K	0.03103 ± 0.002
300 K	0.03937 ± 0.0025
302.1 K	0.04606 ± 0.0029
304.1 K	0.05317 ± 0.0034
307.7 K	0.06905 ± 0.0044
309.2 K	0.0755 ± 0.0048
310.1 K	0.08291 ± 0.0052
312 K	0.09159 ± 0.0058
313.7 K	0.1049 ± 0.0066

Cc1ccc(C#N)cc1 [4-cyanotoluene]
Details	Molar enthalpy of transition or fusion [kcal/mol]	Normal melting temperature [°C]
[1]	3.85 ± 0.12	–
[2]	–	26.2 ± 1.1

[2]
Details	vapor or sublimation pressure
302.1 K	0.03154 ± 0.002 kPa
303.2 K	0.03377 ± 0.0022 kPa
305.3 K	0.04002 ± 0.0026 kPa
309.1 K	0.05079 ± 0.0032 kPa
311 K	0.06008 ± 0.0038 kPa
313.1 K	0.06747 ± 0.0043 kPa
315 K	0.07922 ± 0.005 kPa
319.1 K	0.09993 ± 0.0063 kPa
320.9 K	0.1159 ± 0.0073 kPa
322.9 K	0.1303 ± 0.0081 kPa
325 K	0.1463 ± 0.0092 kPa and 0.1458 ± 0.0092 kPa
329 K	0.1856 ± 0.012 kPa
331 K	0.2118 ± 0.013 kPa
332.8 K	0.2374 ± 0.015 kPa
334.9 K	0.2629 ± 0.016 kPa

Cc1ccccc1C#N [2-methylbenzonitrile]
[2]
Details	vapor or sublimation pressure
287.4 K	0.02064 ± 0.0014 kPa
289.2 K	0.02389 ± 0.0015 kPa
290.3 K	0.02582 ± 0.0017 kPa
292.4 K	0.03043 ± 0.002 kPa
296.3 K	0.04075 ± 0.0026 kPa
298.1 K	0.0467 ± 0.003 kPa
300.7 K	0.05531 ± 0.0035 kPa
305.1 K	0.07684 ± 0.0049 kPa
308.2 K	0.0961 ± 0.0061 kPa
311 K	0.1162 ± 0.0073 kPa
312 K	0.1257 ± 0.0079 kPa and 0.1248 ± 0.0079 kPa
314.9 K	0.1494 ± 0.0094 kPa
316.1 K	0.1625 ± 0.01 kPa
318.1 K	0.1865 ± 0.012 kPa
321.1 K	0.2216 ± 0.014 kPa
322.2 K	0.2425 ± 0.015 kPa
324.2 K	0.2729 ± 0.017 kPa
